Reference: US20230124589A1, “Ivacaftor Glycosides, Methods Of Making, And Uses Thereof In Treating Cystic Fibrosis” (DoubleRainbow Biosciences Inc., priority 2020, published 2023)
≈ marks a conversion by molar mass, not a printed value.

Columns and labels:
[1] = Water solubility (excess compound suspended in distilled water, supernatant measured by HPLC); type: physicochemical
Protocol: The water solubility of ivacaftor and ivacaftor-17-O-D-glucoside was investigated by suspending excess amounts of the two compounds in 200 μl of distilled water in a microcentrifuge tube at 25° C. for 12 h. Afterwards, each sample was centrifuged at 12,000×g for 20 min. The supernatant of each sample was then filtered through a 0.45-μm membrane filter and the concentration of the compound in the supernatant, which is defined as the water-soluble component, was measured by its absorbance at 300 nm using HPLC, and its absolute solubility was calculated in reference to the concentration-absorbance standard curve.

[2] = background statement, no method given; cited from earlier work

| Structure (SMILES) | solubility at 12 h ([1]; 25 °C, water, thermodynamic from solid) | solubility in water [2] | water solubility, times higher than ivacaftor ([1]; distilled water, 25° C., 12 h, relative to ivacaftor) | water solubility ([1]; distilled water, 25° C., 12 h, supernatant filtered 0.45-μm, absorbance at 300 nm by HPLC) |
| --- | --- | --- | --- | --- |
| CC(C)(C)c1cc(C(C)(C)C)c(NC(=O)c2c[nH]c3ccccc3c2=O)cc1O [ivacaftor, Ivacaftor] | 0.1 µg/mL (≈ 0.255 µM) | < 1 µg/mL |  |  |
| CC(C)(C)c1cc(C(C)(C)C)c(OC2O[C@H](CO)[C@@H](O)[C@H](O)[C@H]2O)cc1NC(=O)c1c[nH]c2ccccc2c1=O (stereo partly drawn) [ivacaftor-17-O-D-glucoside] |  |  | 14,550 times | 1,455 mg/L |
